US11840530B2, “Selective EP4 receptor antagonistic substance for treatment of cancer” (AskAt Inc., priority 2009, dated 2023)

Key:
breast cancer cells = details: non-patent literature 5; cited from earlier work
[1] = tested on: gastric tumor of K19-Wnt1/C2mE mice; experiment: Spontaneous gastric cancer model mice, tumor size by X-ray CT; type: in vivo, mouse; details: for sizes of tumors by X-ray CT (relative mean tumor area, FIG. 3): per os 3 mg/kg and 30 mg/kg once a day for five weeks, vs vehicle
Experimental: Among human gastric cancer patients, Wnt up-regulation is observed in 30% to 50%, and induction of COX-2 is observed in more than 70%. Therefore, the K19-Wnt1/C2mE is positioned as a mouse model which extrapolates human gastric cancer in terms of molecular mechanism (Nature Review Cancer, Volume 7, Pages 645-658, 2007).
The experiment was conducted using five spontaneous gastric cancer model mice at 50 weeks old (K19-Wnt1/C2mE mice). The mice develop large tumors in stomach at 50 weeks old, and the size of tumor can be measured with X-ray CT. The sizes of tumors were measured with X-ray CT before administration and at week 1, week 2, and week 3 after administration, and the sizes of tumors were compared. Compound A was continuously administered at a dose of 100 mg/kg twice a day for three weeks. A methyl cellulose was used as a vehicle.
Experiment was conducted using six gastric cancer model mice at 46 to 68 weeks old (K19-Wnt1/C2mE mice). Compound B was continuously administered per os at a dose of 3 mg/kg (n=2), 30 mg/kg (n=2) and vehicle control (n=2) once a day for five weeks. The measurements of tumor sizes were conducted in the same manner as example 1. It was confirmed by X-ray CT scanning that the sizes of tumors increased in a time-dependent manner during test period in two vehicle controls. […] In the FIG. 3, a relative value of the mean tumor area after treatment to that before treatment (0 w) set to 100 is shown with time. Solid square (▪) and solid diamond (♦) represent control model mice. Dotted triangle (▴) and dotted cross (X) represent model mice each administered compound B at a dose of 3 mg/kg. Solid star (*) and solid circle (●) represent model mice each administered compound B at a dose of 30 mg/kg.

[2] = tested on: colon26 (cell line derived from mouse colon cancer); experiment: colon26 subcutaneously implanted to CD2F1 mice, tumor weight; type: in vivo; details: vs vehicle
Experimental: A cell line derived from mouse colon cancer, colon26, was subcutaneously implanted to CD2F1 mice. (According to the method described in Int. J. Cancer, Volume 121, Pages 878-883, 2007, this model extrapolates the colon cancer development and growth in terms of molecular mechanism.) When the mean tumor weight reached 100 mg, vehicle (n=10), compound B once a day at a dose of 30 mg/kg (n=10), or compound C twice a day at a dose of 200 mg/kg (n=10) was administered for 20 days. The tumor weight was calculated as (major axis)×(minor axis)^2×0.5 using the measured values. […] In FIG. 4, solid square (▪), solid triangle (▴), and solid circle (●) represent a group administered vehicle (control), a group administered compound B, and a group administered compound C, respectively.

[3] = tested on: LL/2 (cell line derived from mouse lung cancer); experiment: LL/2 subcutaneously implanted to C57BL/6 mice, tumor weight; type: in vivo; details: vs vehicle
Experimental: A cell line derived from mouse lung cancer, LL/2, was subcutaneously implanted to C57BL/6 mice. (According to the method described in Cancer Research. Volume 58, Pages 2583-2587, 1998, this model extrapolates the lung cancer development and growth.) When the mean tumor weight reached 100 mg, vehicle (n=10), compound B once a day at a dose of 0.3 mg/kg (n=10), or compound C twice a day at a dose of 10 mg/kg (n=10) was administered for 25 days. The tumor weight was calculated as (major axis)×(minor axis)^2×0.5 using the measured values. […] In FIG. 5, solid square (▪), solid triangle (▴), and solid circle (●) represent a group administered vehicle (control), a group administered compound B, and a group administered compound C, respectively.

[4] = tested on: colon cancer cell (HCA-7); details: non-patent literature 4; cited from earlier work
[5] = tested on: azoxymethane-induced colon aberrant crypt foci; details: non-patent literature 6; cited from earlier work
[6] = tested on: intestinal polyp in APC gene knockout mice; details: non-patent literature 6; cited from earlier work

For `O=C(O)CC/C=C\CC[C@H]1[C@H](N2CCOCC2)C(=O)C[C@H]1OCc1ccc(-c2ccccc2)cc1` [AH23848], the “metastasis of breast cancer cells” value (breast cancer cells) is listed as “metastasis suppression”.

In the case of `C[C@H](NC(=O)c1cc(Cl)ccc1Oc1ccc(F)cc1)c1ccc(C(=O)O)cc1` [Compound A, 4-((1S)-1-{[5-chloro-2-(4-fluorophenoxy)benzoyl]amino}ethyl)benzoic Acid], the “histological analysis of excised tissues after the treatment” value ([1]; 100 mg/kg twice a day for three weeks, visual observation) is reported as “disappearance of irregular glandular branching in tumor epithelium”, the “relative tumor volume compared with untreated mice (FIG. 2)” value ([1]; 100 mg/kg twice a day for three weeks, vs 55 to 60 week old untreated K19-Wnt1/C2mE mice (n=7)) is reported as “tumor was shrunk effectively” and the “tumor mass in CT images at three weeks post-administration” value ([1]; 100 mg/kg twice a day, all the five mice) is reported as “tumor mass almost completely disappeared”. For the same compound, the “tumor size in the first week (X-ray CT)” value ([1]; 100 mg/kg twice a day, two individuals with particularly large tumor before administration) was “remarkable reductions of the tumor size”.

With `C[C@H](NC(=O)c1cc(Cl)cnc1Oc1cccc(F)c1)c1ccc(C(=O)O)cc1` [Compound B] the “sizes of tumors by X-ray CT (relative mean tumor area, FIG. 3)” value [1] was “reduced in a dose-dependent manner”, the “tumor size by X-ray CT at a dose of 3 mg/kg” value ([1]; per os 3 mg/kg once a day for five weeks) was “effective reduction of tumor size” and the “tumor lesions in autopsy” value ([1]; per os once a day for five weeks, compared with vehicle control group) was “remarkable shrinkages of tumor lesions”. For the same compound, the “tumor size (calculated tumor weight, FIG. 4)” value ([2]; 30 mg/kg once a day for 20 days) was “Remarkable reductions of tumor size” and the “tumor size (calculated tumor weight, FIG. 5)” value ([3]; 0.3 mg/kg once a day for 25 days) was “Remarkable reductions of tumor size”.

For `CCc1nc2c(C)nc(C)cc2n1-c1ccc(CCNC(=O)NS(=O)(=O)c2ccc(C)cc2)cc1` [Compound C, 3-[2-(4-{2-ethyl-4,6-dimethyl-1H-imidazo[4,5-c]pyridin-1-yl}phenyl)ethyl]-1-[(4-methylbenzene)sulfonyl]urea], the “sizes of tumors by X-ray CT (relative mean tumor area, FIG. 3)” value [1] was “tumor size dramatically reduced”, the “tumor size (calculated tumor weight, FIG. 4)” value ([2]; 200 mg/kg twice a day for 20 days) was “Remarkable reductions of tumor size” and the “tumor size (calculated tumor weight, FIG. 5)” value ([3]; 10 mg/kg twice a day for 25 days) was “Remarkable reductions of tumor size”.

For `CCCCc1nn(-c2ccccc2C(F)(F)F)c(=O)n1Cc1ccc(-c2ccccc2S(=O)(=O)NC(=O)c2sccc2C)cc1` [L-161,982], the “growth of colon cancer cell” value [4] is given as “growth inhibition”.

In the case of `CC(C(=O)Nc1ccccc1Cc1ccccc1C(=O)O)c1cccc2ccccc12` (centres unmarked) [ONO-AE2-227], the “formation of azoxymethane-induced colon aberrant crypt foci” value [5] is listed as “reduced formation” and the “formation of intestinal polyp” value [6] is listed as “reduced formation of intestinal polyp”.

In the case of `CC(C(=O)Nc1cc(C#N)ccc1CCCC(=O)O)c1ccc(F)c2ccccc12` (centres unmarked) [ONO-AE3-208], the “metastasis of breast cancer cells” value (breast cancer cells) is given as “metastasis suppression”.
